Common to all, as to experiment: growth of human tumour cells (NCI), 48 h
Test [1] concerns SK-MEL-2 melanoma.
Test [2] concerns UO-31 renal.
Test [3] relates to SK-MEL-28 melanoma.
The test system of test [4] is U251 CNS.
Test [5] deals with SNB-19 CNS.
For test [6], the system named is MALME-3M melanoma.
The test system of test [7] is OVCAR-5 ovarian.
Test [8] relates to KM12 colon.
Test [9] deals with NCI-H23 lung.
The test system of test [10] is SR leukemia.

Values joined by “and” are separate entries in the source; they are usually repeats but may differ in a detail not shown here. Equal values may be shown once.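 Compound exposure: 48 hours, 5 concentrations, 96-well plates. GI50 is the concentration that inhibits growth by half. TGI marks complete inhibition of growth.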

Among the data in PubChem BioAssay (NCI) are TGI and GI50 values, retold here.

Turning to `CC1(c2ccccc2)CC(c2ccccc2)=NO1` (configuration not stated), the TGI in test [1], in test [2], in test [3], in [4], in test [5] and in [6] was greater than 100 µM each time. Further, the TGI in [7], in test [8], in [9] and in test [10] was greater than 100 µM throughout.
Regarding `O=c1c(Cl)c(Cl)cnn1CCc1ccncc1`, the TGI is 39.7 µM in test [1]; 36.2 µM in [2]; 30.7 µM in [3]; 30.7 µM in test [5]; 39.6 µM in test [6]; 33.6 µM in test [7]. In addition, the values for the TGI in test [8], in test [9] and in test [10] were 28.1 µM, 34.1 µM and 57.2 µM, respectively.
For `c1ccc2nc3c(cc4ccccn43)nc2c1`, the GI50 in [1] is 43.8 µM; in [2], 6.25 µM; in test [3], greater than 100 µM; in [4] it was 39.9 µM; in test [5], greater than 100 µM; in [7] it was greater than 100 µM. The GI50 in test [8] was 26.6 µM; in test [9] it was 37.6 µM; in test [10] it was 52.5 µM. For the same molecule, the TGI in test [1], in [2], in test [3], in [4], in test [5] and in [7] was greater than 100 µM each time. Besides, the TGI in [8], in test [9] and in test [10] was greater than 100 µM each time.
Regarding `CC/C(=N\NS(=O)(=O)c1ccccc1)c1ccccc1`, the TGI in test [1], in test [2], in test [3], in [4], in test [6] and in test [7] was greater than 100 µM in each case. Moreover, the TGI in test [8], in [9] and in test [10] was greater than 100 µM in each case.
For `C[n+]1c2ccccc2cc2c(CNC(CCCN=C(N)N)C(=O)O)cccc21` (configuration not stated), the GI50 is 0.957 µM in [1]; 10.2 µM in [2]; 2.12 µM in [4]; 3.48 µM in test [6]; 14.4 µM in test [7]; 4.19 µM in test [9]. In test [10], the GI50 was 0.22 µM. The TGI is 7.25 µM in test [1]; 2.43 µM and 22 µM in test [2]; 3.65 µM in test [3]; 4.28 µM and 6.85 µM in test [4]; 4.54 µM and 10.7 µM in [6]; 27.4 µM in [7]. For the same molecule, the TGI is 1.72 µM and 1.57 µM in test [8]; 18.4 µM in [9]; 0.468 µM and 0.582 µM in test [10].
Consider `O=C(c1ccc2ccccc2c1)c1c(C(F)(F)F)n([O-])c2ccc(Cl)cc2[n+]1=O`, for which the GI50 is 1.74 µM in [1]; 1.29 µM in [2]; 1.63 µM in test [3]; 1.67 µM in [4]; 1.69 µM in test [5]; 1.59 µM in test [6]. Also, the GI50 in [7] is 1.87 µM; in [8] it was 1.08 µM; in test [10], 0.438 µM. Moreover, the TGI in test [1] turned out to be 3.2 µM; in test [2], 2.55 µM; in [3], 3.02 µM; in test [4], 3.03 µM; in test [5] it was 3.07 µM; in test [6], 3.2 µM. The TGI in test [7] is 3.58 µM; in [8], 2.39 µM; in test [10] it was 1.34 µM.
With `CC1(C)CC[C@H](C2=CC(=O)c3c(O)ccc(O)c3C2=O)O1`, the GI50 is 4.34 µM and 1.3 µM and 0.682 µM in test [1]; 1.39 µM and 1.69 µM and 0.391 µM in [2]; 2.17 µM and 0.979 µM and 0.571 µM in [3]; 3.71 µM and 2.51 µM and 1.5 µM in test [4]; 1.15 µM and 1.26 µM and 0.201 µM in [6]; 4.43 µM and 2 µM and 1.91 µM in test [7]. Also, the GI50 in test [8] was 6.25 µM and 1.69 µM and 1.83 µM; in [9] it was 2.14 µM and 0.836 µM and 0.639 µM; in [10] it was 0.0764 µM. Moreover, the TGI was 8.47 µM and 2.67 µM and 1.56 µM in test [1]; 4 µM and 3.06 µM and 0.838 µM in test [2]; 5.43 µM and 2.15 µM and 1.16 µM in test [3]; 6.5 µM and 7.21 µM and 3.19 µM in test [4]; 2.76 µM and 2.53 µM and 0.471 µM in [6]; 8.24 µM and 3.56 µM and 3.57 µM in test [7]. For the same molecule, the TGI in test [8] is 14.2 µM and 3.2 µM and 3.45 µM; in [9] it was 6.41 µM and 2.07 µM and 2.36 µM; in test [10], 1.46 µM.
Turning to `Cn1c2ccccc2c2c(=O)c3ccccc3[nH]c21`, the GI50 in [1] was greater than 100 µM; in test [2], 58.2 µM; in test [3] it was greater than 100 µM; in test [4], 35.8 µM; in test [5], 43.9 µM; in test [7], 30.8 µM. The GI50 in [8] is 22.1 µM; in [9] it was 30.5 µM; in [10], greater than 100 µM. Moreover, the TGI in test [1], in test [2], in [3], in test [4], in test [5] and in test [7] was greater than 100 µM throughout. Besides, the TGI in [8], in test [9] and in test [10] was greater than 100 µM throughout.
`NC(=O)/C=C/C(=O)O`: the TGI in test [1], in [2], in test [3], in test [4], in test [6] and in test [7] was greater than 5000 µM each time. Also, the TGI in test [8], in test [9] and in test [10] was greater than 5000 µM in each case.
Consider `CC(CC(=O)Nc1ccc(NC(=O)CC(C)N=NC(N)=S)cc1)N=NC(N)=S` (configuration not stated), for which the TGI in test [1], in test [2], in test [3], in test [5], in [6] and in test [7] was greater than 100 µM throughout. For the same molecule, the TGI in [8], in [9] and in test [10] was greater than 100 µM in each case.
For the molecule `COC(=O)/C(C#N)=C1\CCC(C(=O)OC)N1C` (configuration not stated), the TGI in test [1], in test [2], in test [3], in test [4], in [5] and in test [8] was greater than 100 µM throughout. For the same molecule, the TGI in test [9] and in [10] was greater than 100 µM each time.
